Experiments:
CYP1B1 mRNA = experiment: Gene expression analysis (qPCR) in MDA-MB-468 cells; assay type: cell-based, human; details: 1.0 μM, 6 h
Procedure: (§1) These analogues were specifically chosen because they were synthesised without the production of regioisomers, their structural differences are small while their biological differences are large, c.f. […] Neither analogue altered the expression of SULT1A1 (Figure 4D).
(§2) Gene expression was examined in MDA-MB-468 cells following 6 h treatment. Total RNA was extracted using the RNeasy Mini Kit (Qiagen) according to the manufacturer’s instructions. One µg of RNA was reverse transcribed using the QuanitTect Reverse Transcription Kit (Qiagen) according to the manufacturer’s instructions. Rotor-Gene SYBR Green PCR Kit (Qiagen) was used to perform qPCR on a Rotor-Gene 3,000 Thermo-Cycler Instrument using β2-microglobulin as a housekeeping gene (Qiagen). The primer sequences were purchased from Qiagen as follows: AhR (QT02422938), CYP1A1 (QT00012341), CYP1B1 (QT00209496), SULT1A1 (QT01665489), and β2M (QT00088935). HotStar Taq activation (95 °C for 5 min) was followed by 40 cycles of denaturation (95 °C for 5 s), and annealing/extension (60 °C for 10 s). The comparative Ct value method was used for data analysis. Results are presented as the mean ± standard error of the mean (SEM) of analysis conducted in duplicate and repeated on two separate occasions. Significant test results were determined using T-test analysis at p < 0.01 with a two tail distribution.

AhR mRNA = experiment: as above; assay type: cell-based, human; details: 1 μM and the GI50 value, 6 h
Procedure: as §1, §2

CYP1A1 mRNA = experiment: as above; assay type: cell-based, human; details: 6 h
Procedure: as §1, §2

[1] = system: broad panel of cancer cell lines and non-cancer breast cell line MCF10A; details: cited from earlier work
[2] = system: MCF10A normal breast cells; experiment: MTT growth inhibition with CYP1 (αNF) or SULT1A1 (quercetin) inhibitor; assay type: cell-based, human; details: 3 and 5 at 0.1 µM, αNF 10 µM, quercetin 5 µM, 72 h (Supp Figure 1)
Procedure: (§3) This analysis confirms that both CYP1 and SULT1A1, activity is needed to induce the growth inhibitory effect of the BBQ analogue.
(§4) Cells in logarithmic growth were transferred to 96-well plates. Cytotoxicity was determined by plating cells in duplicate in 100 μL medium at a density of 2,500–4,000 cells/well in 96 well plates. On day 0, (24 h after plating) when the cells were in logarithmic growth 100 μL medium with or without the test agent was added to each well. After 72 h drug exposure growth inhibitory effects were evaluated using the MTT (3-[4,5-dimethylthiazol-2-yl]-2,5-diphenyltetrazolium bromide) assay with absorbance read at 540 nm. An eight-point dose response curve was produced, using MS Excel software. From these dose-response curves, the GI50 value was calculated, representing the drug concentration at which cell growth is 50% inhibited based on the difference between the optical density values on day 0 and those at the end of drug exposure ([Bradshaw et al., 2008]; [Zhang et al., 2009]). Each data point was conducted in duplicate and the mean ± S.E.M. calculated from four to five replicates (n = 4 or 5), which were performed on separate occasions and separate cell line passages. Where shown, significant test results were determined using T-test analysis at p < 0.01 and p < 0.05 with a two tail distribution.
(§5) Supp Figure 1. CYP1 and SULT1A1 inhibition ameliorates the effect of 3 and 5. Growth inhibition (72 h, MTT assay) of 3 and 5 (0.1 µM) in the presence of the CYP1 family inhibitor, α-naphthoflavone (αNF, 10 µM) and SULT1A1 inhibitor, quercetin (qu, 5 µM) in (A) MDA-MB-468 breast cancer cells and (B) MCF10A normal breast cells. Significant differences are at the P < 0.01 ** level, using a paired T-test with a two-tailed distribution.

[3] = system: MCF-7 breast cancer cells; design: method as in Gilbert et al., 2020; details: MCF-7, Breast (ER); MTT, 72 h; ref Gilbert et al., 2020; cited from earlier work
[4] = system: MDA-MB-231 breast cancer cells; design: method as in Gilbert et al., 2020; details: MDA-MB-231, Breast (TN); MTT, 72 h; ref Gilbert et al., 2020; cited from earlier work
[5] = system: ZR-75-1 breast cancer cells; design: method as in Gilbert et al., 2020; details: ZR-75-1, Breast (ER/PR); MTT, 72 h; ref Gilbert et al., 2020; cited from earlier work
[6] = system: SKBR3 breast cancer cells; design: method as in Gilbert et al., 2020; details: SKBR3, Breast (HER2); MTT, 72 h; ref Gilbert et al., 2020; cited from earlier work
Du145 (prostate) cells = system: Du145 (prostate) cells; design: method as in Gilbert et al., 2020; details: MTT, 72 h, ref Gilbert et al., 2020; cited from earlier work
[7] = system: BT474 breast cancer cells; design: method as in Gilbert et al., 2020; details: BT474, Breast (ER/PR/HER2); MTT, 72 h; ref Gilbert et al., 2020; cited from earlier work
BT20 breast cancer cells = system: BT20 breast cancer cells; design: method as in Gilbert et al., 2020; details: BT20, Breast (TN); MTT, 72 h; ref Gilbert et al., 2020; cited from earlier work
[8] = system: A431 (vulva/skin, ER+) cells; design: method as in Gilbert et al., 2020; details: MTT, 72 h, ref Gilbert et al., 2020; cited from earlier work
[9] = system: MDA-MB-468 breast cancer cells; experiment: MTT growth inhibition with co-administered CYP1 (αNF) or SULT1A1 (quercetin) inhibitor; assay type: cell-based, human; details: for fold reduction of growth inhibition (GI50 shift): MDA-MB-468
Procedure: as §3
FIGURE 5 CYP1 and SULT1A1 inhibition ameliorates the effect of 5. Growth inhibition (72 h, MTT assay) of 5 in the presence of the (A) CYP1 family inhibitor, α-naphthoflavone (αNF, 10 μM) and (B) SULT1A1 inhibitor, quercetin (5 μM), in MDA-MB-468 breast cancer cells. […] The effect of αNF and quercetin at the single concentration of 10µM and 5 µM respectively is shown in red as a single value.
as §4
as §5, with “Significant differences are at the P < 0.01 ** level, using a paired T-test with a two-tailed distribution.” left out

Compound	CYP1B1 Fold change (mRNA vs DMSO control) (CYP1B1 mRNA)	effect on expression of AhR (AhR mRNA)	CYP1A1 Fold change (mRNA vs DMSO control) (CYP1A1 mRNA; 0.2 μM)	CYP1A1 Fold change (mRNA vs DMSO control) (CYP1A1 mRNA; 1.0 μM)	selective in targeting certain breast cancer cell lines compared with normal cells or other tumour types (fold) ([1]; ref Baker et al., 2021a, Elson et al., 2023)	effect on growth in normal MCF10A cells [2]	GI50 [3]	GI50 [4]	GI50 [5]	GI50 ([1]; A431, MCF-7, T47D, ZR-75-1, SKBR3, MDA-MB-468, BT474, ref Gilbert et al., 2020, read-out: GI50 (range over cell lines))	selective targeting of certain breast cancer cell lines compared with normal breast cells or other tumour types (fold) ([1]; ref Gilbert et al., 2017, Gilbert et al., 2020)	GI50 [6]	GI50 (Du145 (prostate) cells)	GI50 [7]	GI50 (BT20 breast cancer cells)	GI50 [8]	CYP1A1 Fold change (mRNA vs DMSO control) (CYP1A1 mRNA; 0.02 μM)	GI50 ([9]; Homo sapiens, compound alone (no inhibitor), MDA-MB-468, MTT, 72 h)	fold reduction of growth inhibition (GI50 shift) ([9]; with quercetin 5 μM vs alone)	fold reduction of growth inhibition (GI50 shift) ([9]; with α-naphthoflavone 10 μM vs alone)
O=c1c2cccc3cccc(c32)c2nc3ccc(Cl)cc3n12 [Compound 3, 10-Chloro-7H-benzo[de]benzo[4,5]imidazo[2,1-a]isoquinolin-7-one]	3.7 fold	not significantly altered	18 fold	20 fold	up to 150 fold	Neither 3, 5, αNF, or quercetin affected growth	–	–	–	–	–	–	–	–	–	–	–	–	–	–
Nc1ccccc1N1C(=O)c2cccc3cccc(c23)C1=O [Compound 2, 2-(2-aminophenyl)-1H-benzo[de]isoquinoline-1,3(2H)-dione]	–	–	–	–	–	–	700 ± 120 nM	35000 ± 3000 nM	120 ± 30 nM	100 to 700 nM	more than 500 fold	220 ± 20 nM	> 50000 nM	430 ± 70 nM	14000 ± 1500 nM	250 ± 120 nM	–	–	–	–
O=c1c2cccc3cccc(c32)c2nc3ccccc3n12 [Compound 5, 7H-Benzo[de]benzo[4,5]imidazo[2,1-a]isoquinolin-7-one]	4.6 fold	not significantly altered	–	15 fold	–	Neither 3, 5, αNF, or quercetin affected growth	–	–	–	–	–	–	–	–	–	–	12 fold	5 nM	4.6 fold	36 fold
